Measured values reported in patent publication US8853203B2, “Diazepinone derivatives” (Novartis AG, priority 2012, dated 2014).

Tests used:
[1] = biological target: human mGluR1 (Homo sapiens (Human), UniProt Q13255); experiment: mGluR1 antagonism, L-glutamate induced intracellular calcium increase (FLIPR) in CHO cells stably expressing human mGluR1; format: cell-based; conditions: L-glutamate induced intracellular calcium, CHO cells expressing human mGluR1, FLIPR
[2] = biological target: human mGluR5a receptors (Homo sapiens (Human), UniProt P41594); experiment: inhibition of glutamate-induced elevation of intracellular calcium in L(tk-) cells expressing human mGluR5a; format: cell-based; conditions: for IC50: glutamate-induced intracellular calcium elevation, L(tk-) cells expressing human mGluR5a, read-out: mGluR5 IC50; for inhibition at 2 µM: LTK, read-out: mGluR5 % inhibition at 2 μM
In short: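 Compounds tested for inhibition of the glutamate-induced rise in intracellular calcium concentration in L(tk-) cells stably expressing human mGluR5a.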

Chain of human mGluR5a receptors (P41594 other isoform, or with tags, fused parts or gaps): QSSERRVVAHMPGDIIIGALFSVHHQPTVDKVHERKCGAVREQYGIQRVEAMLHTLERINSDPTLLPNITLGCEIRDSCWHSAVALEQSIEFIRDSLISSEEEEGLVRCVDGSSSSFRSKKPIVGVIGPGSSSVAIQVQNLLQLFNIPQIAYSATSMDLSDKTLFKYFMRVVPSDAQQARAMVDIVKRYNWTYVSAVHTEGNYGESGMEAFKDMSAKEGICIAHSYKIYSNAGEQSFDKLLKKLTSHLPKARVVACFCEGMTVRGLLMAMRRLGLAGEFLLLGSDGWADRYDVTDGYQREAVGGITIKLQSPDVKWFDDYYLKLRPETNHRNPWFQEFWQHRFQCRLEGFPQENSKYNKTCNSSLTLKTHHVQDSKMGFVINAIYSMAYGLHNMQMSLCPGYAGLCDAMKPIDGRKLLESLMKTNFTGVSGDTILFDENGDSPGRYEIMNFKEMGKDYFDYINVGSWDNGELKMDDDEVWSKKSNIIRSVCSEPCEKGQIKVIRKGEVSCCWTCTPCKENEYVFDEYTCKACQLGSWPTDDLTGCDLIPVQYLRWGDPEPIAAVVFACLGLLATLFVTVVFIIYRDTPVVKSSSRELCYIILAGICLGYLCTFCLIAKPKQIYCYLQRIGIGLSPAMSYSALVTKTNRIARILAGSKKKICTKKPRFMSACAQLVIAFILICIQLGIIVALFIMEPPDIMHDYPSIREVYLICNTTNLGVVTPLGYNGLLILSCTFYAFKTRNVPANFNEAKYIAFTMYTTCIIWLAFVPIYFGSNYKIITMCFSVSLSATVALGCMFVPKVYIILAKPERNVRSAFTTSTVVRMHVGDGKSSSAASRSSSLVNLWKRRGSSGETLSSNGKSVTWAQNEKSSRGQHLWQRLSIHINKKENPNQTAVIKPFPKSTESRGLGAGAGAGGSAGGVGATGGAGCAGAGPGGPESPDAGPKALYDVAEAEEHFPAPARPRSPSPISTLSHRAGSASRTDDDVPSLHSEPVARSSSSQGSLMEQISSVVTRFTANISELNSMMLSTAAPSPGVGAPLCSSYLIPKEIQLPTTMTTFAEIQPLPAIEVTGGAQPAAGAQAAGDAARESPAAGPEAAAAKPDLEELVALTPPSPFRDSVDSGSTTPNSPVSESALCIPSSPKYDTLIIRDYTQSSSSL
Chain of human mGluR1 (Q13255 19-1194): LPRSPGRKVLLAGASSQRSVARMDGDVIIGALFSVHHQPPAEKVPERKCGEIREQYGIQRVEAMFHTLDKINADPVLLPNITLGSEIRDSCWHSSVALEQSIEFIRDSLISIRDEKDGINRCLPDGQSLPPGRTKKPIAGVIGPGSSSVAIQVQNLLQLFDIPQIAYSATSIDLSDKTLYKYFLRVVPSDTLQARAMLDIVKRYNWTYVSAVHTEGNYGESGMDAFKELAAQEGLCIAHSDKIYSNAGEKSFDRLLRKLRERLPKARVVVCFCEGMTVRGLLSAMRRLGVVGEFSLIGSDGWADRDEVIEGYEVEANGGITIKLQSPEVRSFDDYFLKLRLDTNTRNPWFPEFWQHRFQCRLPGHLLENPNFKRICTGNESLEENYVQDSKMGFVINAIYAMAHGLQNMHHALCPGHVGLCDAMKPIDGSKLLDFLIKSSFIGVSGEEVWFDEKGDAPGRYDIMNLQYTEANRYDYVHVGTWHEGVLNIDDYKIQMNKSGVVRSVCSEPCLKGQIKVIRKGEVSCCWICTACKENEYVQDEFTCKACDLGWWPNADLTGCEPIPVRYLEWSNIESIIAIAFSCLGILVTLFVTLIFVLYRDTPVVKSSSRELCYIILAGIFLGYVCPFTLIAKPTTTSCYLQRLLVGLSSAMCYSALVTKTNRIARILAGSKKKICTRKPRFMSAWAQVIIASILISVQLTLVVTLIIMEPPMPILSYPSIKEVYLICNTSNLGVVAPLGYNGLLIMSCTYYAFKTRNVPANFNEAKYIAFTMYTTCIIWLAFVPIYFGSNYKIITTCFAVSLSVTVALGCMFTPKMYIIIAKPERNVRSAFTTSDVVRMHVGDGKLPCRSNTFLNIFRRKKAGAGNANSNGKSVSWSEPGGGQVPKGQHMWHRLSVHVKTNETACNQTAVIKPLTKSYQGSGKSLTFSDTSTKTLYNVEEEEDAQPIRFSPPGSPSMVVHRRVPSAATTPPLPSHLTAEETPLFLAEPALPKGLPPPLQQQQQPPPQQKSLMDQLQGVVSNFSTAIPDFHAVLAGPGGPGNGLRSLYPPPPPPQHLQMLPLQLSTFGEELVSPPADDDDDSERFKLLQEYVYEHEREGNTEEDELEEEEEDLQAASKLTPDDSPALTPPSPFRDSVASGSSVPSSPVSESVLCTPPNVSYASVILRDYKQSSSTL

Row | SMILES | IC50 [1] | IC50 [2] | inhibition at 2 µM [2]
1 | COCc1cn(C2=NCC(=O)N3CCc4c(cccc4C4CC4)C3=C2)cn1 [Example 96-1, 9-cyclopropyl-2-(4-(methoxymethyl)-1H-imidazol-1-yl)-7,8-dihydro-[1,4]diazepino[7,1-a]isoquinolin-5(4H)-one] | 540 nM | 6 nM | 
2 | COCc1cn(C2=NCC(=O)N3CCc4c(ccc(F)c4C4CC4)C3=C2)cn1 [Example 96-2, 9-cyclopropyl-10-fluoro-2-(4-(methoxymethyl)-1H-imidazol-1-yl)-7,8-dihydro-[1,4]diazepino[7,1-a]isoquinolin-5(4H)-one] | 289 nM | 2 nM | 
3 | O=C1CN=C(n2cnc(C3CC3)c2)C=C2c3cccc(-c4cccnc4F)c3CCN12 [Example 97, 2-(4-cyclopropyl-1H-imidazol-1-yl)-9-(2-fluoropyridin-3-yl)-7,8-dihydro-[1,4]diazepino[7,1-a]isoquinolin-5(4H)-one] | 5900 nM | 37 nM | 
4 | O=C1CN=C(n2cnc(C3CCC3)c2)C=C2c3cccc(-c4cccnc4F)c3CCN12 [Example 98, 2-(4-cyclobutyl-1H-imidazol-1-yl)-9-(2-fluoropyridin-3-yl)-7,8-dihydro-[1,4]diazepino[7,1-a]isoquinolin-5(4H)-one] | 2400 nM | 14 nM | 
5 | O=C1CN=C(n2cnc(C3CC3)c2)C=C2c3cccc(-c4ccc(F)nc4F)c3CCN12 [Example 99, 2-(4-cyclopropyl-1H-imidazol-1-yl)-9-(2,6-difluoropyridin-3-yl)-7,8-dihydro-[1,4]diazepino[7,1-a]isoquinolin-5(4H)-one] | > 2000 nM | 83 nM | 
6 | O=C1CN=C(n2cnc(C3CC3)c2)C=C2c3cccc(-c4ccno4)c3CCN12 [Example 100, 2-(4-cyclopropyl-1H-imidazol-1-yl)-9-(isoxazol-5-yl)-7,8-dihydro-[1,4]diazepino[7,1-a]isoquinolin-5(4H)-one] | 560 nM | 19 nM | 
7 | COCc1cn(C2=NCC(=O)N3CCc4c(cccc4-c4cscn4)C3=C2)cn1 [Example 101, 2-(4-(methoxymethyl)-1H-imidazol-1-yl)-9-(thiazol-4-yl)-7,8-dihydro-[1,4]diazepino[7,1-a]isoquinolin-5(4H)-one] | > 10000 nM | 26 nM | 
8 | CCc1ncn(C2=NCC(=O)N3CCc4c(cccc4-c4ccc(F)nc4)C3=C2)n1 [Example 102, 2-(3-ethyl-1H-1,2,4-triazol-1-yl)-9-(6-fluoropyridin-3-yl)-7,8-dihydro-[1,4]diazepino[7,1-a]isoquinolin-5(4H)-one] | > 10000 nM | 16 nM | 
9 | Cc1cc(-c2cccc3c2CCN2C(=O)CN=C(n4cnc(C5CC5)c4)C=C32)sn1 [Example 103, 2-(4-cyclopropyl-1H-imidazol-1-yl)-9-(3-methylisothiazol-5-yl)-7,8-dihydro-[1,4]diazepino[7,1-a]isoquinolin-5(4H)-one] | > 10000 nM | 18 nM | 
10 | O=C1CN=C(n2cnc(C3CC3)c2)C=C2c3cccc(-c4ncco4)c3CCN12 [Example 104, 2-(4-cyclopropyl-1H-imidazol-1-yl)-9-(oxazol-2-yl)-7,8-dihydro-[1,4]diazepino[7,1-a]isoquinolin-5(4H)-one] | 1300 nM | 7 nM | 
11 | C#Cc1cn(C2=NCC(=O)N3CCc4c(cccc4-c4cscn4)C3=C2)cn1 [Example 105, 2-(4-ethynyl-1H-imidazol-1-yl)-9-(thiazol-4-yl)-7,8-dihydro-[1,4]diazepino[7,1-a]isoquinolin-5(4H)-one] | > 10000 nM | 122 nM | 
12 | O=C1CN=C(n2cnc(-c3ncco3)c2)C=C2c3cccc(-c4cccnc4F)c3CCN12 [Example 106, 9-(2-fluoropyridin-3-yl)-2-(4-(oxazol-2-yl)-1H-imidazol-1-yl)-7,8-dihydro-[1,4]diazepino[7,1-a]isoquinolin-5(4H)-one] | > 10000 nM | 182 nM | 

Other lines, results leading:

Row | IC50 [1] | IC50 [2] | inhibition at 2 µM [2] | SMILES
13 | > 10000 nM | 77 nM |  | Cc1cn(C2=NCC(=O)N3CCc4c(cccc4-c4cnc(C)o4)C3=C2)cn1 [Example 99a, 2-(4-methyl-1H-imidazol-1-yl)-9-(2-methyloxazol-5-yl)-7,8-dihydro-[1,4]diazepino[7,1-a]isoquinolin-5(4H)-one]
14 | > 10000 nM |  | 41% | O=C1CN=C(n2cnc(C3CC3)c2)C=C2c3cccc(-c4cc(C(F)(F)F)n[nH]4)c3CCN12 [Example 99b, 2-(4-cyclopropyl-1H-imidazol-1-yl)-9-(3-(trifluoromethyl)-1H-pyrazol-5-yl)-7,8-dihydro-[1,4]diazepino[7,1-a]isoquinolin-5(4H)-one]
15 | > 10000 nM |  | 31% | O=C1CN=C(n2cnc(C3CC3)c2)C=C2c3cccc(-c4ccc(O)nc4)c3CCN12 [Example 99c, 2-(4-cyclopropyl-1H-imidazol-1-yl)-9-(6-hydroxypyridin-3-yl)-7,8-dihydro-[1,4]diazepino[7,1-a]isoquinolin-5(4H)-one]
16 | > 2000 nM | 347 nM |  | COc1ccc(-c2cccc3c2CCN2C(=O)CN=C(n4cnc(C5CC5)c4)C=C32)cn1 [Example 99d, 2-(4-cyclopropyl-1H-imidazol-1-yl)-9-(6-methoxypyridin-3-yl)-7,8-dihydro-[1,4]diazepino[7,1-a]isoquinolin-5(4H)-one]
17 | 8260 nM | 127 nM |  | O=C1CN=C(n2cnc(C3CC3)c2)C=C2c3cccc(-c4cc[nH]n4)c3CCN12 [Example 99e, 2-(4-cyclopropyl-1H-imidazol-1-yl)-9-(1H-pyrazol-3-yl)-7,8-dihydro-[1,4]diazepino[7,1-a]isoquinolin-5(4H)-one]
18 | 12000 nM | 102 nM |  | O=C1CN=C(n2cnc(C3CC3)c2)C=C2c3cccc(-c4cnc(F)nc4)c3CCN12 [Example 99f, 2-(4-cyclopropyl-1H-imidazol-1-yl)-9-(2-fluoropyrimidin-5-yl)-7,8-dihydro-[1,4]diazepino[7,1-a]isoquinolin-5(4H)-one]
19 | 18200 nM | 220 nM |  | O=C1CN=C(n2cnc(C3CC3)c2)C=C2c3cccc(-c4ccnc(F)c4)c3CCN12 [Example 99g, 2-(4-cyclopropyl-1H-imidazol-1-yl)-9-(2-fluoropyridin-4-yl)-7,8-dihydro-[1,4]diazepino[7,1-a]isoquinolin-5(4H)-one]
20 | 687 nM | 16 nM |  | COCc1cn(C2=NCC(=O)N3CCc4c(C5CC5)ccc(F)c4C3=C2)cn1 [Example 99i, 9-cyclopropyl-12-fluoro-2-(4-(methoxymethyl)-1H-imidazol-1-yl)-7,8-dihydro-[1,4]diazepino[7,1-a]isoquinolin-5(4H)-one]
21 | 3210 nM | 7 nM |  | CO[C@H](C)c1cn(C2=NCC(=O)N3CCc4c(C5CC5)ccc(F)c4C3=C2)cn1 [Example 99j, (R)-9-cyclopropyl-12-fluoro-2-(4-(1-methoxyethyl)-1H-imidazol-1-yl)-7,8-dihydro-[1,4]diazepino[7,1-a]isoquinolin-5(4H)-one]
22 | 561 nM | 3 nM |  | COCc1cn(C2=NCC(=O)N3CCc4c(cc(F)cc4C4CC4)C3=C2)cn1 [Example 99k, 9-cyclopropyl-11-fluoro-2-(4-(methoxymethyl)-1H-imidazol-1-yl)-7,8-dihydro-[1,4]diazepino[7,1-a]isoquinolin-5(4H)-one]
23 | 702 nM | 2 nM |  | O=C1CN=C(n2cnc(C(F)F)c2)C=C2c3cccc(C4CC4)c3CCN12 [Example 99l, 9-cyclopropyl-2-(4-(difluoromethyl)-1H-imidazol-1-yl)-7,8-dihydro-[1,4]diazepino[7,1-a]isoquinolin-5(4H)-one]
24 | 672 nM | 2 nM |  | O=C1CN=C(n2cnc(CF)c2)C=C2c3cccc(C4CC4)c3CCN12 [Example 99m, 9-cyclopropyl-2-(4-(fluoromethyl)-1H-imidazol-1-yl)-7,8-dihydro-[1,4]diazepino[7,1-a]isoquinolin-5(4H)-one]
25 | 2080 nM | 6 nM |  | CO[C@H](C)c1cn(C2=NCC(=O)N3CCc4c(ccc(F)c4C4CC4)C3=C2)cn1 [Example 99n, (R)-9-cyclopropyl-10-fluoro-2-(4-(1-methoxyethyl)-1H-imidazol-1-yl)-7,8-dihydro-[1,4]diazepino[7,1-a]isoquinolin-5(4H)-one]
26 | > 10000 nM | 50 nM |  | Cc1ncn(C2=NCC(=O)N3CCc4c(ccc(F)c4-c4ccc(F)nc4)C3=C2)n1 [Example 99o, 10-fluoro-9-(6-fluoropyridin-3-yl)-2-(3-methyl-1H-1,2,4-triazol-1-yl)-7,8-dihydro-[1,4]diazepino[7,1-a]isoquinolin-5(4H)-one]
27 | 814 nM | 2 nM |  | COCc1ncn(C2=NCC(=O)N3CCc4c(ccc(F)c4C4CC4)C3=C2)n1 [Example 99p, 9-cyclopropyl-10-fluoro-2-(3-(methoxymethyl)-1H-1,2,4-triazol-1-yl)-7,8-dihydro-[1,4]diazepino[7,1-a]isoquinolin-5(4H)-one]
28 | > 6000 nM | 88 nM |  | O=C1CN=C(n2cnc(C3CC3)n2)C=C2c3ccc(F)c(-c4cccnc4F)c3CCN12 [Example 99q, 2-(3-cyclopropyl-1H-1,2,4-triazol-1-yl)-10-fluoro-9-(2-fluoropyridin-3-yl)-7,8-dihydro-[1,4]diazepino[7,1-a]isoquinolin-5(4H)-one]
29 | > 10000 nM | 136 nM |  | Cc1ncn(C2=NCC(=O)N3CCc4c(ccc(F)c4-c4cccnc4F)C3=C2)n1 [Example 99r, 10-fluoro-9-(2-fluoropyridin-3-yl)-2-(3-methyl-1H-1,2,4-triazol-1-yl)-7,8-dihydro-[1,4]diazepino[7,1-a]isoquinolin-5(4H)-one]
30 | > 10000 nM | 153 nM |  | Cc1cn(C2=NCC(=O)N3CCc4c(ccc(F)c4-c4cccnc4F)C3=C2)cn1 [Example 99s, 10-fluoro-9-(2-fluoropyridin-3-yl)-2-(4-methyl-1H-imidazol-1-yl)-7,8-dihydro-[1,4]diazepino[7,1-a]isoquinolin-5(4H)-one]
